Test results taken from ChEMBL document CHEMBL5131472, “Synthesis and antiviral activity of formycin derivatives with anti-influenza virus activity” (Bioorg Med Chem, 2022).

Columns and labels:
Influenza A virus = test: Antiviral activity against Influenza A virus A/WSN/33(H1N1) infected in dog MDCK cells assessed as reduction in viral titer in supernatants incubated for 24 hrs by plaque assay; format: functional, organism-based
[1] = Cytotoxicity against dog MDCK cells assessed as reduction in cell viability incubated for 48 hrs by CellTiter96 Aqueous one solution assay; format: toxicity, cell-based, Canis lupus familiaris

| SMILES | IC50 (Influenza A virus) [µM] | CC50 at 48 h [1] [µM] |
| --- | --- | --- |
| CCNc1ncnc2c([C@@H]3O[C@H](CO)[C@@H](O)[C@H]3O)n[nH]c12 | 0.313 | 5.7 |
| C[Se]c1ncnc2c([C@@H]3O[C@H](CO)[C@@H](O)[C@H]3O)n[nH]c12 | 0.024 | < 0.1 |
| CSc1nc(O)nc2c([C@@H]3O[C@H](CO)[C@@H](O)[C@H]3O)n[nH]c12 | > 1 | > 1000 |
| C=CCSc1ncnc2c([C@@H]3O[C@H](CO)[C@@H](O)[C@H]3O)n[nH]c12 | 0.22 | 412 |
| CSCc1ncnc2c([C@@H]3O[C@H](CO)[C@@H](O)[C@H]3O)n[nH]c12 |  | > 1000 |
| OC[C@H]1O[C@@H](c2n[nH]c3c([SeH])ncnc23)[C@H](O)[C@@H]1O | 0.035 | 5.6 |
| CSc1ncnc2c([C@@H]3O[C@H](CO)[C@@H](O)[C@H]3O)nn(C)c12 | 0.344 | 205 |
| CSc1ncnc2c([C@@H]3O[C@H](CO)[C@@H](O)[C@]3(C)O)n[nH]c12 | 0.306 | > 1000 |
| CSc1nc(Cl)nc2c([C@@H]3O[C@H](CO)[C@@H](O)[C@H]3O)n[nH]c12 | > 1 | > 1000 |
| CSc1ncnc2c([C@@H]3O[C@H](CO)[C@H](O)[C@H]3O)n[nH]c12 |  | > 1000 |
| CCCCSc1ncnc2c([C@@H]3O[C@H](CO)[C@@H](O)[C@H]3O)n[nH]c12 |  | 238 |
| CC(C)Sc1ncnc2c([C@@H]3O[C@H](CO)[C@@H](O)[C@H]3O)n[nH]c12 |  | 503 |
| CSc1nc(SC)c2[nH]nc([C@@H]3O[C@H](CO)[C@@H](O)[C@H]3O)c2n1 | > 1 | > 1000 |
| CSc1ncnc2c([C@H]3C=C[C@@H](CO)O3)n[nH]c12 |  | 190 |
| CNc1ncnc2c([C@@H]3O[C@H](CO)[C@@H](O)[C@H]3O)n[nH]c12 | 0.015 | 1.5 |
| CCSc1ncnc2c([C@@H]3O[C@H](CO)[C@@H](O)[C@H]3O)n[nH]c12 | 0.201 | > 1000 |
| OC[C@H]1O[C@@H](c2n[nH]c3c(N4CCCC4)ncnc23)[C@H](O)[C@@H]1O |  | 211 |
| OC[C@H]1O[C@@H](c2n[nH]c3c(N4CCOCC4)ncnc23)[C@H](O)[C@@H]1O |  | > 1000 |
| COc1ncnc2c([C@@H]3O[C@H](CO)[C@@H](O)[C@H]3O)n[nH]c12 | 0.088 | 1.2 |
| CCc1ncnc2c([C@@H]3O[C@H](CO)[C@@H](O)[C@H]3O)n[nH]c12 |  | > 1000 |
| CSc1ncnc2c([C@@H]3O[C@H](CO)[C@@H](O)[C@@]3(C)O)n[nH]c12 | 2.59 | > 1000 |
| CN(C)c1ncnc2c([C@@H]3O[C@H](CO)[C@@H](O)[C@H]3O)n[nH]c12 | 2.84 | 70 |
| OC[C@H]1O[C@@H](c2n[nH]c3c(-n4cncn4)ncnc23)[C@H](O)[C@@H]1O | 0.251 | 7.9 |

| SMILES | IC50 (Influenza A virus) [µM] | CC50 at 48 h [1] [µM] |
| --- | --- | --- |
| OC[C@H]1O[C@@H](c2n[nH]c3c(NCCl)ncnc23)[C@H](O)[C@@H]1O | 0.282 | 19 |
| CCCCNc1ncnc2c([C@@H]3O[C@H](CO)[C@@H](O)[C@H]3O)n[nH]c12 | 0.68 | > 1000 |
| CSc1ncnc2c([C@@H]3O[C@H](CO)[C@@H](O)[C@@H]3O)n[nH]c12 | > 3 | > 1000 |
| CC(C)Nc1ncnc2c([C@@H]3O[C@H](CO)[C@@H](O)[C@H]3O)n[nH]c12 |  | > 1000 |
| OC[C@H]1O[C@@H](c2n[nH]c3c(NC4CC4)ncnc23)[C@H](O)[C@@H]1O |  | 431 |
| OC[C@H]1O[C@@H](c2n[nH]c3c(N4CCCCC4)ncnc23)[C@H](O)[C@@H]1O |  | 289 |
| CSc1ncnc2c([C@@H]3O[C@H](CO)C[C@H]3O)n[nH]c12 |  | > 1000 |
| OC[C@H]1O[C@@H](c2nn3c4c(ncnc24)SCC3)[C@H](O)[C@@H]1O |  | 249 |
| O=c1[nH]cnc2c([C@@H]3O[C@H](CO)[C@@H](O)[C@H]3O)n[nH]c12 [FORMYCIN B] | 3.63 | 68 |
| OC[C@H]1O[C@@H](c2n[nH]c3c(SC(F)(F)F)ncnc23)[C@H](O)[C@@H]1O | 0.397 | 3.6 |
| OC[C@H]1O[C@@H](c2n[nH]c3c(-n4ccnn4)ncnc23)[C@H](O)[C@@H]1O | 0.343 | 287 |
| CN[C@H]1[C@H](O)[C@@H](CO)O[C@H]1c1n[nH]c2c(SC)ncnc12 |  | 49 |
| CSc1ncnc2c([C@H]3C[C@H](O)[C@@H](CO)O3)n[nH]c12 | > 3 | > 1000 |
| CSc1ncnc2c([C@@H]3O[C@H](CO)[C@@H](O)[C@H]3O)n(C)nc12 |  | > 1000 |
| NC(=O)CSc1ncnc2c([C@@H]3O[C@H](CO)[C@@H](O)[C@H]3O)n[nH]c12 |  | 307 |
| OC[C@H]1O[C@@H](c2n[nH]c3c(-n4nccn4)ncnc23)[C@H](O)[C@@H]1O | 0.103 | < 0.1 |
| CSc1ncnc2c([C@@H]3O[C@H](CO)[C@@H](O)[C@H]3O)n[nH]c12 | 0.01 | 9.3 |
| OC[C@H]1O[C@@H](c2n[nH]c3c(-c4cnn[nH]4)ncnc23)[C@H](O)[C@@H]1O |  | > 1000 |
| OC[C@H]1O[C@@H](c2n[nH]c3c(S)ncnc23)[C@H](O)[C@@H]1O | 0.571 | 403 |
| Nc1ncnc2c([C@@H]3O[C@H](CO)[C@@H](O)[C@H]3O)[nH]nc12 [FORMYCIN] | 0.029 | 2.6 |
| CSc1ncnc2c([C@@H](CO)OC(CO)CO)n[nH]c12 |  | > 1000 |
| OC[C@H]1O[C@@H](c2n[nH]c3c(SCC(F)(F)F)ncnc23)[C@H](O)[C@@H]1O | 1.09 | 64 |
